Results: ChEMBL document CHEMBL1743341, “Cytochrome p450 enzymes mechanism based inhibitors: common sub-structures and reactivity” (Curr Drug Metab, 2005)

Legend:
Assay type in all cases: ADME
Cytochrome P450 2E1 = Cytochrome P450 2E1 (Rattus norvegicus, UniProt P05182); experiment: Mechanism based inhibition of rat cytochrome P450 CYP2E1
Cytochrome P450 2C11 = target: T1, Cytochrome P450 2C11 (Rattus norvegicus, UniProt P08683); experiment: Mechanism based inhibition of rat cytochrome P450 CYP2C11 measured by 2-alpha and 16-alpha hydroxylation of testosterone
T1 sequence (P08683 whole entry): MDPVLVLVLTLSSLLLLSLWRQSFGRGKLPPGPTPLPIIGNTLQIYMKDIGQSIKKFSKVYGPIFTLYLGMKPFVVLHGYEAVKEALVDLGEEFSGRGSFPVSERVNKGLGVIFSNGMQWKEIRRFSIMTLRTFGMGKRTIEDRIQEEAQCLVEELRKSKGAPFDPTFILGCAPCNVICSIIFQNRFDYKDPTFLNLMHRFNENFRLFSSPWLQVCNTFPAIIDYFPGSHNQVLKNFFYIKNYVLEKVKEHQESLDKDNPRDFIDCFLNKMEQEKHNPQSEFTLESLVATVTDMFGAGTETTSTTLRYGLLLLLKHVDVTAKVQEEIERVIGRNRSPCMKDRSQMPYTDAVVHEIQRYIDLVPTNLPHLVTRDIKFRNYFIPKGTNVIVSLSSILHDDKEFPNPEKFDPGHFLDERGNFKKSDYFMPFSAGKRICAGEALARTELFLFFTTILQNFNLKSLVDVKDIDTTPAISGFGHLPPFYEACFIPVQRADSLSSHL

Cytochrome P450 1A1 = target: T2, Cytochrome P450 1A1 (Rattus norvegicus, UniProt P00185); experiment: (§1) Mechanism based inhibition of rat cytochrome P450 CYP1A1 measured by 7-ethoxyresorufin O-deethylation (EROD)
T2 sequence (P00185 whole entry): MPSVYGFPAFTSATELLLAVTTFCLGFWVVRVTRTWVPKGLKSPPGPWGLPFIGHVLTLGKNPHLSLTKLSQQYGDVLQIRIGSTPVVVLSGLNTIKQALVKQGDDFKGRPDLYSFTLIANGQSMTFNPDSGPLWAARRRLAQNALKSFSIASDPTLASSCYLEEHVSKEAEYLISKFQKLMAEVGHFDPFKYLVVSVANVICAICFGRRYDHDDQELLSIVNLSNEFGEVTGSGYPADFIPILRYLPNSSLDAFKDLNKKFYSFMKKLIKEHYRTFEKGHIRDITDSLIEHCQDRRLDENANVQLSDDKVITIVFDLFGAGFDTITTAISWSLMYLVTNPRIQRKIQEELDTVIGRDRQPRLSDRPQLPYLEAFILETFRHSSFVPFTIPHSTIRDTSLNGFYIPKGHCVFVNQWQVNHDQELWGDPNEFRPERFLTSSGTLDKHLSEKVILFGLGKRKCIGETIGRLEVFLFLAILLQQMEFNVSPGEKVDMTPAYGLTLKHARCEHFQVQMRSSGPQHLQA

CYP1A1 = target: T3, CYP1A1 (Rattus norvegicus, UniProt P00185); experiment: as §1; settings: rat, probe 7-ethoxyresorufin (O-deethylation, EROD)
T3 sequence (P00185 whole entry): T2 sequence (P00185 whole entry)

CYP1A2 [1] = target: T4, CYP1A2 (Rattus norvegicus, UniProt P04799); experiment: (§2) Mechanism based inhibition of rat cytochrome P450 CYP1A2 measured by 7-methoxyresorufin O-demethylation (MROD); settings: rat, probe 7-methoxyresorufin (O-demethylation, MROD)
T4 sequence (P04799 whole entry): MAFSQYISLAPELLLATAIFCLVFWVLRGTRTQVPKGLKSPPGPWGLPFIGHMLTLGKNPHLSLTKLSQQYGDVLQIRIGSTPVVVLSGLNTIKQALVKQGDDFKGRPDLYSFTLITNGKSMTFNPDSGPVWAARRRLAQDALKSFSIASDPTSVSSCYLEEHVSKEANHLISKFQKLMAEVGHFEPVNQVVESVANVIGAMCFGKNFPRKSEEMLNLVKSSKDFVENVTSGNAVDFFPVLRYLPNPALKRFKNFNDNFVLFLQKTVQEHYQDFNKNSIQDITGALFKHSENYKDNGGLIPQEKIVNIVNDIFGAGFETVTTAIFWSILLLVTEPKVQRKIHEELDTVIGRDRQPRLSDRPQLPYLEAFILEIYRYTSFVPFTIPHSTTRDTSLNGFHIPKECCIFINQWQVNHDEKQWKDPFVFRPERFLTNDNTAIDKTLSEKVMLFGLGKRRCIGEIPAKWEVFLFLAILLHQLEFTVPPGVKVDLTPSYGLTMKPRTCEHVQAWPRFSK

Cytochrome P450 1A2 [2] = target: T5, Cytochrome P450 1A2 (Rattus norvegicus, UniProt P04799); experiment: as §2
T5 sequence (P04799 whole entry): T4 sequence (P04799 whole entry)

Cytochrome P450 1A2 [3] = target: T6, Cytochrome P450 1A2 (Homo sapiens, UniProt P05177); experiment: (§3) Mechanism based inhibition of human cytochrome P450 1A2 measured by phenacetin O-deethylation (POD)
T6 sequence (P05177 whole entry): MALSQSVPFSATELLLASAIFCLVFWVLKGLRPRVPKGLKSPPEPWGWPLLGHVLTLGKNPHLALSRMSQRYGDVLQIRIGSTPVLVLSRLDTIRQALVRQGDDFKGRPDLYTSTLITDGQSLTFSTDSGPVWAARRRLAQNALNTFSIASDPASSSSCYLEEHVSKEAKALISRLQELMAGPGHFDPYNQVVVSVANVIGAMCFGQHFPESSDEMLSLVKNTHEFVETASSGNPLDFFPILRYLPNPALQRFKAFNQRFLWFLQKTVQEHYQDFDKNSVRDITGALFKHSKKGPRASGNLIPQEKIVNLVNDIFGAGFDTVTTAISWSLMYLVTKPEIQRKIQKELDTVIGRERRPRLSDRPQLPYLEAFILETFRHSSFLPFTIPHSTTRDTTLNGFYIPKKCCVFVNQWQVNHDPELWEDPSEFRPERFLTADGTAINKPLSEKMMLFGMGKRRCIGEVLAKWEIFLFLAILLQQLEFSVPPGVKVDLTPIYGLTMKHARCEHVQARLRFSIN

CYP1A2 [4] = target: T7, CYP1A2 (Homo sapiens, UniProt P05177); experiment: as §3; settings: human, probe phenacetin (O-deethylation, POD)
T7 sequence (P05177 whole entry): T6 sequence (P05177 whole entry)

Cytochrome P450 2E1, sequence (P05182 whole entry): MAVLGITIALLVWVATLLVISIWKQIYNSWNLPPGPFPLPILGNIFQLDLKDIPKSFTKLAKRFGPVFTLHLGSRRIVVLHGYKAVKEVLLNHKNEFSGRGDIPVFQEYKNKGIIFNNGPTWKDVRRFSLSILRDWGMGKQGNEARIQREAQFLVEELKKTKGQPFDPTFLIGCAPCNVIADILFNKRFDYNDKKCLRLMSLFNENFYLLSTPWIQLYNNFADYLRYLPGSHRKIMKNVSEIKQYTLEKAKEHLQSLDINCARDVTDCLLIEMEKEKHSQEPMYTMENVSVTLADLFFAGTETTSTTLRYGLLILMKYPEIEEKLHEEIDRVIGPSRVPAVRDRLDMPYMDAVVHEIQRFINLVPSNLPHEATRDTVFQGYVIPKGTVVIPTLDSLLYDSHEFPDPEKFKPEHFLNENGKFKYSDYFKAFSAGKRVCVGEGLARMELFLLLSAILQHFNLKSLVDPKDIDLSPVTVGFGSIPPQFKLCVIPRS

C/C=C\Cl.Cl/C=C\Cl
mechanism based inhibition (Cytochrome P450 2E1): Cytochrome P450 mechanistic inhibitor: PMID 9851676

CNCCC(Oc1ccccc1OC)c1ccccc1 (centres undefined) [NISOXETINE]
mechanism based inhibition (Cytochrome P450 2C11): Cytochrome P450 mechanistic inhibitor: PMID 14555335

C#Cc1cc2cccc3ccc4cccc1c4c32
Ki (Cytochrome P450 1A1): 10 nM
kinact (CYP1A1): 0.00117 s⁻¹
kinact (CYP1A2 [1]): 0.005 s⁻¹
Ki (Cytochrome P450 1A2 [2]): 1200 nM

CC(c1cc2ccccc2s1)N(O)C(N)=O (racemic) [ZILEUTON]
Ki (Cytochrome P450 1A2 [3]): 117000 nM
kinact (CYP1A2 [4]): 0.000583 s⁻¹

CNCCC(Oc1ccc(C(F)(F)F)cc1)c1ccccc1 (centres undefined) [FLUOXETINE]
mechanism based inhibition (Cytochrome P450 2C11): Cytochrome P450 mechanistic inhibitor: PMID 14555335

CC#Cc1ccc2ccc3cccc4ccc1c2c34
Ki (Cytochrome P450 1A1): 300 nM
kinact (CYP1A1): 0.000333 s⁻¹
kinact (CYP1A2 [1]): 0.001 s⁻¹
Ki (Cytochrome P450 1A2 [2]): 4 nM

CNCCCN1c2ccccc2CCc2ccccc21 [DESIPRAMINE]
mechanism based inhibition (Cytochrome P450 2C11): Cytochrome P450 mechanistic inhibitor: PMID 14555335
